Experimental data as given in patent US20080292733A1, “Antioxidant and Fe2+ Chelating Properties of Herbal Extracts” (priority 2005, published 2008).
Like-named read-outs stand apart in the source and are kept apart here.

Experiments:
[1] = Fe^2+ chelation assay (ferrozine, cell-free)
SH—SY5Y cells = experiment: Neuroblastoma cell viability assay (WST-1), SH—SY5Y; assay type: cell-based, human
N1E 115 cells = experiment: Neuroblastoma cell viability assay (WST-1), N1E 115; assay type: cell-based, murine; conditions: N1E 115, 96 hours
[2] = cell-free, 0.5 mM FeSO4, 1 mM ferrozine, titration curves, absorbance 562 nm
[3] = SH—SY5Y, 96 hours, dose-response

Row | Structure (SMILES) | inhibition of Fe(ferrozine)3^2+ complex formation [1, 2] | effect on cell number (dose-response curve) (SH—SY5Y cells; [3]) | effect on cell number (dose-response curve) (N1E 115 cells) | also measured
1 | CC(C)=CCC[C@](C)(O[C@@H]1O[C@H](CO[C@@H]2O[C@H](CO)[C@@H](O)[C@H](O)[C@H]2O)[C@@H](O)[C@H](O)[C@H]1O)[C@H]1CC[C@]2(C)[C@@H]1[C@H](O)C[C@@H]1[C@@]3(C)CC[C@H](O[C@@H]4O[C@H](CO)[C@@H](O)[C@H](O)[C@H]4O[C@@H]4O[C@H](CO)[C@@H](O)[C@H](O)[C@H]4O)C(C)(C)[C@@H]3CC[C@]12C [Rb1, ginsenoside Rb1] | demonstrated the ability to inhibit Fe^2+ interaction with ferrozine | – | – | –
2 | C[C@@H]1C(=O)O[C@H]2C[C@@]34[C@H]5C[C@@H](C(C)(C)C)[C@]36[C@@H](OC(=O)[C@@H]6O)O[C@@]4(C(=O)O5)[C@]21O [ginkgolide A] | – | Only quercetin demonstrated significant inhibition of cell number | Only quercetin demonstrated significant inhibition of cell number | inhibition of Fe(ferrozine)3^2+ complex formation [1]: no activity
3 | CC1C(=O)OC2C(O)C34C5CC(C(C)(C)C)C36C(OC(=O)C6O)OC4(C(=O)O5)C12O (stereo not shown) [ginkgolide B] | no activity | Only quercetin demonstrated significant inhibition of cell number | Only quercetin demonstrated significant inhibition of cell number | –
4 | CC(C)=CCC[C@](C)(O[C@@H]1O[C@H](CO)[C@@H](O)[C@H](O)[C@H]1O)[C@H]1CC[C@]2(C)[C@@H]1[C@H](O)C[C@@H]1[C@@]3(C)CC[C@H](O[C@@H]4O[C@H](CO)[C@@H](O)[C@H](O)[C@H]4O[C@@H]4O[C@H](CO)[C@@H](O)[C@H](O)[C@H]4O)C(C)(C)[C@@H]3CC[C@]12C [Rd, ginsenoside Rd] | demonstrated the ability to inhibit Fe^2+ interaction with ferrozine | – | – | –
5 | CC(=O)N(O)CCCCCNC(=O)CCC(=O)N(O)CCCCCNC(=O)CCC(=O)N(O)CCCCCN [DFO, desferroxamine, reference compound] | able to prevent Fe(ferrozine)3^2+ complex formation | biphasic effects | suppress neuroblastoma cell number | –
6 | O=c1c(O)c(-c2ccc(O)c(O)c2)oc2cc(O)cc(O)c12 [quercetin] | able to inhibit Fe(ferrozine)3^2+ complex formation | significant inhibition of cell number | significant inhibition of cell number | concentration at which significant (P<0.05) inhibition of cell number is first apparent (SH—SY5Y cells; SH—SY5Y, 96 hours): 5 µg/mL; concentration at which significant (P<0.05) inhibition of cell number is first apparent (N1E 115 cells): 5 µg/mL
7 | CC(C)=CCC[C@]1(C)[C@@H](CC=C(C)C)C[C@@]2(CC=C(C)C)C(=O)[C@]1(C(=O)C(C)C)C(=O)C(CC=C(C)C)=C2O [hyperforin] | – | – | significant and dose-dependent suppression of cell number | effect on cell number (dose-response curve) (SH—SY5Y cells): significant and dose-dependent suppression of cell number
8 | CC(C)=CCC[C@](C)(O[C@@H]1O[C@H](CO[C@@H]2O[C@@H](CO)[C@H](O)[C@H]2O)[C@@H](O)[C@H](O)[C@H]1O)[C@H]1CC[C@]2(C)[C@@H]1[C@H](O)C[C@@H]1[C@@]3(C)CC[C@H](O[C@@H]4O[C@H](CO)[C@@H](O)[C@H](O)[C@H]4O[C@@H]4O[C@H](CO)[C@@H](O)[C@H](O)[C@H]4O)C(C)(C)[C@@H]3CC[C@]12C [Rc, ginsenoside Rc] | demonstrated the ability to inhibit Fe^2+ interaction with ferrozine | – | – | –
